Source: publication PMC10412597, “Small molecule branched-chain ketoacid dehydrogenase kinase (BDK) inhibitors with opposing effects on BDK protein levels” (Nature Communications, 2023)

Columns and labels:
Set-up in all cases: Invitrogen kinase panel, per cent inhibition of kinase activity
MSK1 = target: T1, MSK1 (Homo sapiens, UniProt O75582); settings: 10 µM, inhibitor
T1 construct: gene RPS6KA5
How it was run: (§1)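 These are secondary selectivity data for BDK inhibitors, taken from kinase panels.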

mixed lineage kinase 1 = target: T2, mixed lineage kinase 1 (Homo sapiens, UniProt P80192); settings: 10 µM, inhibitor
T2 construct: gene MAP3K9
How it was run: as §1

MAPKAPK2 = MAPKAPK2 (Homo sapiens, UniProt P49137); settings: 10 µM, inhibitor
Sequence of MAPKAPK2 (P49137 whole entry): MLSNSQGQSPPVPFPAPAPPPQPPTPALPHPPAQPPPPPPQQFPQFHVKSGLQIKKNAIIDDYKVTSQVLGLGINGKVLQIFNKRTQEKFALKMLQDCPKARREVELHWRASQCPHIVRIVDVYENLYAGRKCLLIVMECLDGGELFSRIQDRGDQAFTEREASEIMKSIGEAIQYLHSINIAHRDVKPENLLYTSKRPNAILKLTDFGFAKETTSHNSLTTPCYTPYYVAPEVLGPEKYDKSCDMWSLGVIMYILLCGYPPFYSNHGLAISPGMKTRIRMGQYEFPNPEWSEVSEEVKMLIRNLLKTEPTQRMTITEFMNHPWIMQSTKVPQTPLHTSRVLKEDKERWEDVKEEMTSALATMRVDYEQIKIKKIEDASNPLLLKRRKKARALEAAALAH
Procedure: (§2) To discover a potent and selective BDK inhibitor, a subset of the Pfizer compound collection was screened. […] Off target activity was assessed in both CEREP and kinase panels (Supplementary Tables 2, 3).

PIM-1 = target: T3, PIM-1 (Homo sapiens, UniProt P11309); settings: 10 µM, inhibitor
T3 construct: gene PIM1
How it was run: as §1

ROCK1 = ROCK1 (Homo sapiens, UniProt Q13464); settings: 10 µM, inhibitor
Sequence of ROCK1 (Q13464 whole entry): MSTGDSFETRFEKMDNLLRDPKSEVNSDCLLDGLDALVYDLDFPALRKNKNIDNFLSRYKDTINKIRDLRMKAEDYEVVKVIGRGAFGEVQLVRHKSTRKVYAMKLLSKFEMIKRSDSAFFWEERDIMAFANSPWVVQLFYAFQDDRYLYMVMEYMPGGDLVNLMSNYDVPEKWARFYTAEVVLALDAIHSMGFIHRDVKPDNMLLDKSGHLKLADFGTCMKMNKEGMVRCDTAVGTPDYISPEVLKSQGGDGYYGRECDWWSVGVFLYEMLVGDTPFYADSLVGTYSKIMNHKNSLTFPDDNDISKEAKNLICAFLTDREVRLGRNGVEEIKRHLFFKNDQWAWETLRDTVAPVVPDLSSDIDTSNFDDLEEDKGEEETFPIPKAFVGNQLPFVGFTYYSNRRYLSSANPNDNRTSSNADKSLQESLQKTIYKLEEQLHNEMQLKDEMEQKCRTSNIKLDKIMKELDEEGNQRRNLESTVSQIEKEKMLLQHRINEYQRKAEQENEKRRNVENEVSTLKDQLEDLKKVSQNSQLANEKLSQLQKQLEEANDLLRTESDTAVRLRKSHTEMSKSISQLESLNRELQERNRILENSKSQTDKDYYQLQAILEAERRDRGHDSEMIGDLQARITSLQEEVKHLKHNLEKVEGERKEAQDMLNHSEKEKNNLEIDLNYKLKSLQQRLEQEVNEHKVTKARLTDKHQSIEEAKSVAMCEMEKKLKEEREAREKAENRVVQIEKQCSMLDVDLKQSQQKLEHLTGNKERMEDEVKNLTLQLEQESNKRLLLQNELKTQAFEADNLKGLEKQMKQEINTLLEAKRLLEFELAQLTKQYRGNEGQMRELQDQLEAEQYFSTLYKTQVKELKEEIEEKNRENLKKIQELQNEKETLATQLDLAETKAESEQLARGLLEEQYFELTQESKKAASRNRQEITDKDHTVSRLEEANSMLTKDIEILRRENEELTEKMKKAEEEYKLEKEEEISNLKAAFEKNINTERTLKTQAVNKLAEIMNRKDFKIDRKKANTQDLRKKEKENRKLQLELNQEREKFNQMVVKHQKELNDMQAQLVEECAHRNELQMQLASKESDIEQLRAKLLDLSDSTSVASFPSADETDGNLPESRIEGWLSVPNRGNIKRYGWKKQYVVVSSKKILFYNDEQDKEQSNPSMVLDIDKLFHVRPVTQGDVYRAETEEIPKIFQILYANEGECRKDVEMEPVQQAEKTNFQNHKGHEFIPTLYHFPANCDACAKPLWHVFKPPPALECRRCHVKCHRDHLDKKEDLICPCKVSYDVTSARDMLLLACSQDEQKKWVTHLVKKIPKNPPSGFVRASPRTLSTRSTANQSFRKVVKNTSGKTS
Procedure: as §2

BTK = BTK (Homo sapiens, UniProt Q06187); settings: 10 µM, inhibitor
Sequence of BTK (Q06187 whole entry): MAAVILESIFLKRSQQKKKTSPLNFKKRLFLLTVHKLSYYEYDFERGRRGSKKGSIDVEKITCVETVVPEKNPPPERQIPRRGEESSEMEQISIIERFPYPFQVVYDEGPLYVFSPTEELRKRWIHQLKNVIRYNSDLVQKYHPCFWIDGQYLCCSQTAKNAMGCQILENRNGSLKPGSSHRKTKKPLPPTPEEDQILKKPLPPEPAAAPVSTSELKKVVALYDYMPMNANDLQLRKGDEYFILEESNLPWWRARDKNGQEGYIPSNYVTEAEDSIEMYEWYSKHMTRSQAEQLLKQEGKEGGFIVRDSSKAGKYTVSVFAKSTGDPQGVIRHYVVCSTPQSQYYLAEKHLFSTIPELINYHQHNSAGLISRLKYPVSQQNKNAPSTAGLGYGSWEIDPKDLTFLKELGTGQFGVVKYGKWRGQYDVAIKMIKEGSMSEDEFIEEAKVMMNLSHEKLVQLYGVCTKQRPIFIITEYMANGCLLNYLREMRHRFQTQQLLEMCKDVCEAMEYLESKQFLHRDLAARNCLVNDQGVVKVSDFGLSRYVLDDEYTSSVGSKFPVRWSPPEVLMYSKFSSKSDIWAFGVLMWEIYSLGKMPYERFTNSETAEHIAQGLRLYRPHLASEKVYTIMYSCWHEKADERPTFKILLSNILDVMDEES
Procedure: as §2

AKT2 = AKT2 (Homo sapiens, UniProt P31751); settings: 10 µM, inhibitor
Sequence of AKT2 (P31751 whole entry): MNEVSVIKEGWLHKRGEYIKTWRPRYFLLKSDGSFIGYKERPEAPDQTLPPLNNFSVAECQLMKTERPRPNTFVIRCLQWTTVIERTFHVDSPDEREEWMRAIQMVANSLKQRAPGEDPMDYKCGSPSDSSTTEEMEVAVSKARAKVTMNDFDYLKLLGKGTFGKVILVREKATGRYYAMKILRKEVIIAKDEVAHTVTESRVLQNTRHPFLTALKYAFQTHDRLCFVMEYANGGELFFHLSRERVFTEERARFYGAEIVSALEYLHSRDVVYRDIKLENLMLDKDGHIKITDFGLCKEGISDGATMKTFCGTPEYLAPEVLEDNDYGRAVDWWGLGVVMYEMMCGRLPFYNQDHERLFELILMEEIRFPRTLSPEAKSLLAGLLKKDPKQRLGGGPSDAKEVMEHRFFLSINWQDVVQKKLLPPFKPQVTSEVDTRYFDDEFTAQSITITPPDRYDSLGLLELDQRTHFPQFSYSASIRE
How it was run: as §1

CKI-delta = target: T4, CKI-delta (Homo sapiens, UniProt P48730); settings: 10 µM, inhibitor
T4 construct: gene CSNK1D
How it was run: as §1

MEK1 = target: T5, MEK1 (Homo sapiens, UniProt Q02750); settings: 10 µM, inhibitor
T5 construct: gene MAP2K1
T5 sequence (Q02750 whole entry): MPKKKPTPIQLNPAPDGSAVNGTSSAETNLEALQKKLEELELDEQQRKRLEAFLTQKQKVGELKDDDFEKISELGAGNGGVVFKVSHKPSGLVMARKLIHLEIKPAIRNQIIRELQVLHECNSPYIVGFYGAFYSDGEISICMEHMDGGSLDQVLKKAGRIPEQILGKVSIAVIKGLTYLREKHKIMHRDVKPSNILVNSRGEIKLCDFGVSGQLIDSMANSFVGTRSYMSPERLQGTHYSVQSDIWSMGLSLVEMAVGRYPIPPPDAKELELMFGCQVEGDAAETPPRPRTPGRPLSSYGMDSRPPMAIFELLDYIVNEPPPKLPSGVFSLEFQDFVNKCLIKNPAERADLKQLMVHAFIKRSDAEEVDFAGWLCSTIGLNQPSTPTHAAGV
Procedure: as §2

SPHK2 = SPHK2 (Homo sapiens, UniProt Q9NRA0); settings: inhibitor
Procedure: as §2

Rsk2 = target: T6, Rsk2 (Homo sapiens, UniProt P51812); settings: 10 µM, inhibitor
T6 construct: gene RPS6KA3
How it was run: as §1

[1] = target: T7, IkB kinase beta subunit (IKK BETA) (Homo sapiens, UniProt O14920); settings: 10 µM, inhibitor
T7 construct: gene IKBKB
How it was run: as §1

AURKB = AURKB (Homo sapiens, UniProt Q96GD4); settings: 10 µM, inhibitor
Sequence of AURKB (Q96GD4 whole entry): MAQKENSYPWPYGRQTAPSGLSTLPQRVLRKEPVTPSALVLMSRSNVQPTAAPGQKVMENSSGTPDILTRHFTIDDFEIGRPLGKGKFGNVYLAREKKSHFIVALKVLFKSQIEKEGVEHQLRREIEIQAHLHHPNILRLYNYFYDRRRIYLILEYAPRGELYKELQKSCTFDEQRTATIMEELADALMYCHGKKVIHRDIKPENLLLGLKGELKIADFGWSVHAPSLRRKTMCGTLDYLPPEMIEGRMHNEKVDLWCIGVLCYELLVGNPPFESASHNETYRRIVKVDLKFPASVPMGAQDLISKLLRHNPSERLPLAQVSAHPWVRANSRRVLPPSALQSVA
How it was run: as §1

JAK3 = target: T8, JAK3 (Homo sapiens, UniProt P52333); settings: 10 µM, inhibitor
T8 sequence (P52333 1-1124): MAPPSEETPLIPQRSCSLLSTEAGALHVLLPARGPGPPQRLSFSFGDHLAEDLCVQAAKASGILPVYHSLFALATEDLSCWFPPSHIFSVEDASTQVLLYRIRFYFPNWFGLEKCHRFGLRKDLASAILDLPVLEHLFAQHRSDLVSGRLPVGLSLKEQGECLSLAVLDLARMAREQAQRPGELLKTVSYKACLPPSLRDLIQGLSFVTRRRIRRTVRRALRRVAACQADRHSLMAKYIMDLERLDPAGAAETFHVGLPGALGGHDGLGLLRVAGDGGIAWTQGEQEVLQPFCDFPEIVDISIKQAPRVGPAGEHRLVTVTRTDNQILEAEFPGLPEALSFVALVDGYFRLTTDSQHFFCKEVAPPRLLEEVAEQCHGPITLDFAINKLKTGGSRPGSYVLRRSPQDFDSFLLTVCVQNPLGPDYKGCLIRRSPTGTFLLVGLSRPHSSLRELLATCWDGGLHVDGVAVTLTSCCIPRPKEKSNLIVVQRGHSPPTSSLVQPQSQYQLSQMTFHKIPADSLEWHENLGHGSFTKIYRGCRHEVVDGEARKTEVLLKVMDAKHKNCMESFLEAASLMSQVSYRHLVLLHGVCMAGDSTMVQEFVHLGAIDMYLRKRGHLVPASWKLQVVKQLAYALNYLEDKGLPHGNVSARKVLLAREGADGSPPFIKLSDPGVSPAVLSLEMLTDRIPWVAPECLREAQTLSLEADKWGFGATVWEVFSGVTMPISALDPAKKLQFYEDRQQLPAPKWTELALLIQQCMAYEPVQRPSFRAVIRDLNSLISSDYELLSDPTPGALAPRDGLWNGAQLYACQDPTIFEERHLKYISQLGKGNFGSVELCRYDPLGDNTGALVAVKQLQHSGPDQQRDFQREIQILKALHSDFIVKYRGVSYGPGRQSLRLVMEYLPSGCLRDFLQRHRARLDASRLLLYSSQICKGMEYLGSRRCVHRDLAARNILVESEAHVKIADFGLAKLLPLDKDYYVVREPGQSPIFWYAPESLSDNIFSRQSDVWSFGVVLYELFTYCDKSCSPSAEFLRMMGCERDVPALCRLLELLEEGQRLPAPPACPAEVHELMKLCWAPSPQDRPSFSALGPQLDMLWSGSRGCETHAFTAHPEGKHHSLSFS
Procedure: as §2

PRKCA = target: T9, PRKCA (Homo sapiens, UniProt P17252); settings: 10 µM, inhibitor
T9 construct: 1 mM ATP
How it was run: as §1

PIK3CD = PIK3CD (Homo sapiens, UniProt O00329); settings: 10 µM, inhibitor
How it was run: as §1

MAPKAPK5 = MAPKAPK5 (Homo sapiens, UniProt Q8IW41); settings: 10 µM, inhibitor
Sequence of MAPKAPK5 (Q8IW41 whole entry): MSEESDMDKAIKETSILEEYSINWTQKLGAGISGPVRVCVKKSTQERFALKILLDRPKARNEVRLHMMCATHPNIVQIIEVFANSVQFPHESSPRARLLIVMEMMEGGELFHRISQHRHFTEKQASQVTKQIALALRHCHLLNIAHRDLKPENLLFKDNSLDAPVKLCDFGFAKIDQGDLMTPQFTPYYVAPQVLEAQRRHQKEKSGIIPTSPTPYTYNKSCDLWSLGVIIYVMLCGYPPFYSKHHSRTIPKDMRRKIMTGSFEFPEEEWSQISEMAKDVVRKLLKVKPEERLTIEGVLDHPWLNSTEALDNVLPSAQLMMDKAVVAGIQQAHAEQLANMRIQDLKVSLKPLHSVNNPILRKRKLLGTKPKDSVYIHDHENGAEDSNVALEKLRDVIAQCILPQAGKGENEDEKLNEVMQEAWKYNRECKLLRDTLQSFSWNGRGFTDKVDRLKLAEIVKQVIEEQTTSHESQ
How it was run: as §1

PIK3C2B = PIK3C2B (Homo sapiens, UniProt O00750); settings: inhibitor
Procedure: as §2

Question: Which “ATP = Km % Inhibition PF-07247685” value (MSK1) does the source give for `CCC1(COc2ccc(-c3csc(-c4ccccc4C(=O)O)n3)cn2)CC1` [PF-07247685, 2-(4-{6-[(1-ethylcyclopropyl)methoxy]pyridin-3-yl}-1,3-thiazol-2-yl)benzoic acid] here?
Answer: -1.4%

Question: And the “ATP = Km % Inhibition PF-07247685” value (mixed lineage kinase 1)?
Answer: 6.3%

Question: And the “ATP = 1 mM % Inhibition PF-07247685” value (MAPKAPK2)?
Answer: 3.3%

Question: What about the “ATP = Km % Inhibition PF-07247685” value (MAPKAPK2) of the same compound?
Answer: 2.2%

Question: What about the “ATP = Km % Inhibition PF-07247685” value (PIM-1) of the same compound?
Answer: -2.6%

Question: And the “ATP = 1 mM % Inhibition PF-07247685” value (ROCK1)?
Answer: -0.9%

Question: What about the “ATP = Km % Inhibition PF-07247685” value (ROCK1) of the same compound?
Answer: 2.4%

Question: What about the “ATP = 1 mM % Inhibition PF-07247685” value (BTK) of the same compound?
Answer: 3.1%

Question: What about the “ATP = Km % Inhibition PF-07247685” value (BTK) of the same compound?
Answer: -0.7%

Question: What about the “ATP = Km % Inhibition PF-07247685” value (AKT2) of the same compound?
Answer: 5.5%

Question: What about the “ATP = Km % Inhibition PF-07247685” value (CKI-delta) of the same compound?
Answer: 6.0%

Question: What about the “ATP = 100 uM % Inhibition PF-07247685” value (MEK1) of the same compound?
Answer: 11.2%

Question: And the “ATP = 10 uM % Inhibition PF-07247685” value (SPHK2)?
Answer: 3.9%

Question: And the “ATP = Km % Inhibition PF-07247685” value (Rsk2)?
Answer: -1.6%

Question: And the “ATP = Km % Inhibition PF-07247685” value [1]?
Answer: -0.0%

Question: What about the “ATP = Km % Inhibition PF-07247685” value (AURKB) of the same compound?
Answer: 17.3%

Question: And the “ATP = 1 mM % Inhibition PF-07247685” value (JAK3)?
Answer: -0.0%

Question: What about the “ATP = Km % Inhibition PF-07247685” value (JAK3) of the same compound?
Answer: 0.8%

Question: And the “ATP = Km % Inhibition PF-07247685” value (PRKCA)?
Answer: 14.8%

Question: What about the “ATP = Km % Inhibition PF-07247685” value (PIK3CD) of the same compound?
Answer: -7.0%

Question: What about the “ATP = Km % Inhibition PF-07247685” value (MAPKAPK5) of the same compound?
Answer: 2.3%

Question: And the “ATP = 10 uM % Inhibition PF-07247685” value (PIK3C2B)?
Answer: 2.0%

Question: What does the source list for `O=C(O)c1sc2cc(F)sc2c1Cl` [PF-07208254, 3-chloro-5-fluorothieno[3,2-b]thiophene-2-carboxylic acid]?
Answer: ATP = Km % Inhibition PF-07208254 (MSK1): 2.7%; ATP = Km % Inhibition PF-07208254 (mixed lineage kinase 1): 3.2%; ATP = 1 mM % Inhibition PF-07208254 (MAPKAPK2): -1.5%; ATP = Km % Inhibition PF-07208254 (MAPKAPK2): 3.4%; ATP = Km % Inhibition PF-07208254 (PIM-1): 44.5%; ATP = 1 mM % Inhibition PF-07208254 (ROCK1): 0.8%; ATP = Km % Inhibition PF-07208254 (ROCK1): 3.6%; ATP = 1 mM % Inhibition PF-07208254 (BTK): 0.8%; ATP = Km % Inhibition PF-07208254 (BTK): 5.9%; ATP = Km % Inhibition PF-07208254 (AKT2): 0.2%; ATP = Km % Inhibition PF-07208254 (CKI-delta): 9.1%; ATP = 100 uM % Inhibition PF-07208254 (MEK1): 4.1%; ATP = 10 uM % Inhibition PF-07208254 (SPHK2): -11.8%; ATP = Km % Inhibition PF-07208254 (Rsk2): -0.7%; ATP = Km % Inhibition PF-07208254 [1]: 4.8%; ATP = Km % Inhibition PF-07208254 (AURKB): 3.0%; ATP = 1 mM % Inhibition PF-07208254 (JAK3): -4.1%; ATP = Km % Inhibition PF-07208254 (JAK3): 0.9%; ATP = Km % Inhibition PF-07208254 (PRKCA): 3.8%; ATP = Km % Inhibition PF-07208254 (PIK3CD): 6.4%; ATP = Km % Inhibition PF-07208254 (MAPKAPK5): 6.6%; ATP = 10 uM % Inhibition PF-07208254 (PIK3C2B): 3.5%
